Test results taken from PubChem BioAssay (NCI).
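Exposure lasted 48 hours, with cells grown in 96-well plates and compounds tested at five concentrations. TGI: total growth inhibition.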

How the values were obtained:
Assay in all cases: NCI tumour cell line growth inhibition, 48 h
UACC-62 melanoma = system: UACC-62 melanoma
SN12C renal = system: SN12C renal
SK-MEL-28 melanoma = system: SK-MEL-28 melanoma
COLO 205 colon = system: COLO 205 colon
SW-620 colon = system: SW-620 colon
SNB-75 CNS = system: SNB-75 CNS
ACHN renal = system: ACHN renal
KM12 colon = system: KM12 colon
DU-145 prostate = system: DU-145 prostate
MDA-MB-435 = system: MDA-MB-435
UACC-257 melanoma = system: UACC-257 melanoma
CCRF-CEM leukemia = system: CCRF-CEM leukemia
SNB-19 CNS = system: SNB-19 CNS
LOX IMVI melanoma = system: LOX IMVI melanoma
A498 renal = system: A498 renal
HT29 colon = system: HT29 colon
786-0 renal = system: 786-0 renal
HS 578T breast = system: HS 578T breast
NCI-H226 lung = system: NCI-H226 lung
K-562 leukemia = system: K-562 leukemia
HCT-15 colon = system: HCT-15 colon
SK-MEL-2 melanoma = system: SK-MEL-2 melanoma
RXF 393 renal = system: RXF 393 renal
OVCAR-5 ovarian = system: OVCAR-5 ovarian
CAKI-1 renal = system: CAKI-1 renal
NCI-H460 lung = system: NCI-H460 lung
NCI-H522 lung = system: NCI-H522 lung
SF-295 CNS = system: SF-295 CNS
OVCAR-4 ovarian = system: OVCAR-4 ovarian
SK-OV-3 ovarian = system: SK-OV-3 ovarian
HL-60(TB) leukemia = system: HL-60(TB) leukemia
TK-10 renal = system: TK-10 renal
M14 melanoma = system: M14 melanoma
U251 CNS = system: U251 CNS
T-47D breast = system: T-47D breast
BT-549 breast = system: BT-549 breast
HCC-2998 colon = system: HCC-2998 colon
SF-539 CNS = system: SF-539 CNS
SK-MEL-5 melanoma = system: SK-MEL-5 melanoma
OVCAR-3 ovarian = system: OVCAR-3 ovarian
HOP-92 NSCLC = system: HOP-92 NSCLC
RPMI-8226 leukemia = system: RPMI-8226 leukemia
SR leukemia = system: SR leukemia
MDA-MB-231 breast = system: MDA-MB-231 breast
HOP-62 NSCLC = system: HOP-62 NSCLC
SF-268 CNS = system: SF-268 CNS
PC-3 prostate = system: PC-3 prostate
A549 NSCLC = system: A549 NSCLC
NCI/ADR-RES ovarian = system: NCI/ADR-RES ovarian
NCI-H23 lung = system: NCI-H23 lung
MCF7 breast = system: MCF7 breast
EKVX NSCLC = system: EKVX NSCLC
MOLT-4 leukemia = system: MOLT-4 leukemia
MALME-3M melanoma = system: MALME-3M melanoma
HCT-116 colon = system: HCT-116 colon
OVCAR-8 ovarian = system: OVCAR-8 ovarian
IGROV1 ovarian = system: IGROV1 ovarian

Measured: TGI

NC(N)=NCCN1CCCCCc2ccccc21
> 10 µM: all assays above
